Columns and labels:
[1] = system: isolated mouse atrium
[2] = system: N-type Ca channel; assay type: cell-based, mouse

With `NC1=N[C@H](O)[C@H]2[C@H]3O[C@]4(O)O[C@@H]([C@@H](O)[C@@]2(N1)[C@@H]4O)[C@]3(O)CO` [tetrodotoxin] the “increase in atrial muscle contractile force by nerve stimulus” value [1] was “completely inhibited”.

In the case of ω-conotoxin GVIA, the “influx of Ca2+ inhibited by ω-conotoxin GVIA” value [2] is reported as “not observed”.

— patent US7067714B1 (priority 1999, dated 2006)
